Values quoted from earlier work in US7220859B2, “Bicyclic heterocycles as cannabinoid receptor modulators” (Bristol-Myers Squibb Company, priority 2005, dated 2007).

Settings: 16 week trial period

Cc1c(C(=O)NN2CCCCC2)nn(-c2ccc(Cl)cc2Cl)c1-c1ccc(Cl)cc1 [SR-141716]
body weight in human subjects: dose-dependently reduced body weight
